Source: patent US10806726B2, “Methods of using indazole-3-carb oxamides and their use as Wnt/B-catenin signaling pathway inhibitors” (Samumed, LLC, priority 2016, dated 2020)

What was measured:
[1] = system: IL6 production in THP-1 cells; assay: Cytokine Production Assay, LPS-induced IL6 in THP-1 cells; format: cell-based; conditions: Homo sapiens; THP-1, LPS 500 ng/ml 22 hours, 2 independent assays; read-out: average EC50, inhibition of IL6 production
Method: THP-1 cells were cultured in basal media with 1% FBS for 24 hours before the start of the assay. THP-1 cells were plated at 6×10e^4 cells/well and treated with DMSO (vehicle control) or compound 175 at 10 μM highest test concentration and 2 to 3.5-fold serial dilutions up to 8 concentrations (10, 3.5, 1, 0.5, 0.1, 0.035, 0.01, 0.005 μM). For the TNFα assay, 50 ng/mL of LPS was added to the wells after 2 hours to induce cytokine production, and cells were incubated for 5 hours at 37° C. For the IL6 assay, 500 ng/ml of LPS was added after 2 hours and cells were incubated for 22 hours at 37° C. Plates were spun in a centrifuge for 1 minute at 10,000 rpm and supernatants were collected for ELISA. Supernatants were diluted 1:1 for the TNFα assay and 1:4 for the IL6 assay using the assay medium. ELISA was performed using Human TNF-α ELISA MAX™ Deluxe (Catalog #430204, Biolegend, San Diego, Calif.) and Human IL-6 ELISA MAX™ Deluxe (Catalog #430504, Biolegend, San Diego, Calif.) kits. […] Following several washes to remove unbound avidin-HRP, the TMB substrate was added and the plates were read on the Cytation 3 plate reader (Biotek Inc., Winooski, Vt.) at an absorbance of 450 nm with correction at 570 nm. […] Inhibition profile and EC50 was calculated using Prism 5 (GraphPad Software Inc, La Jolla, Calif., USA). […]

[2] = system: collagenase-induced tendonitis of the Achilles tendon in Sprague Dawley rats; assay: Rat Tendinopathy Model (2), collagenase-induced, tendon histology scoring; format: in vivo; conditions: for tendon histology score: topical once daily 21 days, total score of 20
Method: Fifty (50 μl) of Collagenase Type IA (10 mg/ml in PBS, pH 7.4, approximately 469 units/mg) (Catalog # C5138, Sigma, St. Louis, Mo.) was injected into the Achilles tendon of both ankles near the osteotendinous junction of male Sprague Dawley CD® IGS rats (CRL, Inc.), using insulin syringes with 28.5 G needle.
Rats were divided into 6 groups, with 6 animals per group except 8 animals in Group 2: Group 1 (sham injection), Group 2 (Collagenase-Vehicle with 0.5% Phx), Group 3 (Collagenase-compound 175 3 mg/mL with 0.5% BA), Group 4 (Collagenase-compound 175 10 mg/mL with 0.5% BA), Group 5 (Collagenase-compound 175 3 mg/mL with 0.5% Phx) and Group 6 (Collagenase-compound 175 10 mg/mL with 0.5% Phx). […] All rats were periodically observed for any pain, illnesses or abnormalities. At various time points, blood was collected for plasma in lithium heparin coated tubes by saphenous vein bleeding. For histology, rats were euthanized using isoflurane, tendons were isolated (n=8 tendons/group), fixed in 10% buffered formalin (Catalog # SF93-4, Fisher, Pittsburgh, Pa.) and H & E histology staining was performed at a secondary site (Pacific Pathology, San Diego, Calif.). For biochemical analysis, tendons were isolated (n=4 tendons/group), flash frozen in liquid nitrogen and then stored at −80° C. for subsequent biochemical analysis (not reported). Additionally, one (1) day after collagenase injection, 4 tendons were collected from Group 2 (vehicle) to observe the induction of inflammation (not reported).
There is biological variability in response to collagenase when injected directly into the tendons. […] Therefore, the entire tendon was isolated and placed in a tissue cassette and embedded in paraffin. Five (5) μm sections were generated with an average of 3 sections being fixed on one slide with a minimum of eight (8) slides per tendon and subjected to Hematoxylin & Eosin (H&E) staining. Slides were viewed under an upright light microscope (EVOS AMEX-1200) at a 10× magnification and scored blinded using a 1-4 scoring system of severity: 1-representing severe damage and 4—representing normal tendon, for Linearity of the fiber structure, Shape of the tendon cells, Density of the tendon cells, Inflammation, and Hemorrhage for a total score of twenty (20) using a modification of that described previously (Urdzikova et al., 2014—see Table 3). After the analysis was completed, the scorer was unblinded and scores for each criterion was annotated, totaled and total scores from each section were averaged together to generate a final score for each rat followed by averaging of scores for a given treatment group.
For tendon scoring, each section was analyzed following a 1-4 point scoring system as previously described (Urdzikova et al., 2014) with the exclusion of one variable, Thickness of the epitenon, due to difficulty in discerning the epitenon layer in the histology sections. In this study, a total of 94 sections were scored for Group 1 (sham injection, control group) and between 92-116 sections for Group 2 (Collagenase-Vehicle with 0.5% Phx); Group 3 (Collagenase-compound 175 3 mg/mL with 0.5% BA), Group 4 (Collagenase-compound 175 10 mg/mL with 0.5% BA), Group 5 (Collagenase-compound 175 3 mg/mL with 0.5% Phx) and Group 6 (Collagenase-compound 175 10 mg/mL with 0.5% Phx).

With `COc1ccc(NC(=O)c2n[nH]c3ccc(-c4cncc(CN5CCCCC5)c4)cc23)cn1` [compound 175, N-(6-Methoxypyridin-3-yl)-5-(5-(piperidin-1-ylmethyl)pyridin-3-yl)-1H-indazole-3-carboxamide] the EC50 [1] was 356 to 629 nM, the “blinded histology scoring of tendon injury and inflammation vs vehicle” value ([2]; 3 and 10 mg/mL, with either BA or Phx as preservative) was “significantly ameliorated collagenase-induced tendinopathy” and the tendon histology score ([2]; Group 3, 3 mg/mL with 0.5% BA) was 14.5 (±1.15). The tendon histology score ([2]; Group 4, 10 mg/mL with 0.5% BA) was 14.8 (±0.968), the tendon histology score ([2]; Group 5, 3 mg/mL with 0.5% Phx) was 15.1 (±0.506) and the tendon histology score ([2]; Group 6, 10 mg/mL with 0.5% Phx) was 13.2 (±0.855).
